These results are taken from patent US10190120B2, “Zn-DPA complex compounds and siRNA delivery systems containing the same” (KOREA INSTITUTE OF SCIENCE AND TECHNOLOGY, priority 2016, dated 2019).

The subject of test [1] is HepG2 cell line. Put plainly: siRNA delivery efficiency with biotin pre-treatment (competition). The test is classed as cell-based. The settings on record: biotin 0.5 mM and 5 mM 30 minutes before, molar ratio 1:400, FIG. 6. The procedure: (§1) According to Experimental Example 1 (1), composites having a molar ratio of siRNA (luciferase siRNA, siLuc) and the Zn-DPA complex compound of 1:50, 1:100, 1:200, 1:400, 1:600, 1:800, and 1:1,000 were prepared, and the concentration of siLuc per sample was adjusted constantly at 20 nM. The composite was treated with ssPEI/CMV-LUC (1 μg) in HeLa, HepG2, and HCT116 cell lines, and was washed with a Dulbecco's phosphate buffered saline solution (DPBS) after 6 hours, and then the composite was treated in a serum-free medium. After 4 hours, the medium was exchanged with a 10% serum medium, and then the samples were cultivated at 37° C. for 24 hours. The cells were washed with the DPBS and were dissolved in a lysis buffer (200 μL), and then the degree of expression of the luciferase was determined by using a microplate fluorescence analyzer (VICTOR 3 V Multilabel Counter, PerkinElmer, Wellesley, Mass.). The results are illustrated in FIG. 5.
(§2) In order to evaluate the delivery efficiency of siRNA (luciferase siRNA, siLuc) for the Zn-DPA complex compound synthesized in Example 1-3, a cell experiment was performed in the same manner as in Experimental Example 4 by classifying the experimental groups into groups treated with biotin at a concentration of 0.5 mM and 5 mM 30 minutes before treating the groups with a composite of siRNA and the Zn-DPA complex compound, or a non-treatment group. […]

For test [2], the system named is HCT116 cell line. Described as above. The test is classed as cell-based. The settings on record: biotin 0.5 mM and 5 mM 30 minutes before, molar ratio 1:400, FIG. 6. The procedure:
as §1, §2

`O=C(CCCCC1SC[C@H]2NC(=O)N[C@@H]12)NCCCCOc1cccc(CN(Cc2ccccn2)Cc2ccccn2)c1` (some centres unmarked) [Example 1-3]: the “effect of biotin on cell delivery efficiency / amount of luciferase expressed” value is recorded as “significantly varied depending on the presence or absence of biotin” in test [1] and “slight” in test [2].
